Values after ≈ are worked out from the molar mass of the structure shown.
Experiments:
[1] = test system: Plasmodium falciparum strain W2; assay: In vitro screening protocol II, [3H] hypoxanthine incorporation IC50 assay, W2; type: cell-based; details: P. falciparum W2; for IC50: Plasmodium falciparum
Description: (§1) The protocol described here is a modification of the in vitro screening protocol I and the details of the methodology are given below.
(§2) Plasmodium falciparum strains 3D7A and W2.
(§3) The culture medium comprised RPMI 1640 with 25 mM HEPES, sodium bicarbonate and glutamine (GIBCO™ cat. ref.: 52400), supplemented with 10% of pooled human sera AB (Bioreclamation HMSRM-AB)) and HT supplement (0.15 mM hypoxanthine and 24 μM thymidine), (GIBCO™ cat. ref.: 41065). Human sera were decomplemented 30 min. at 56° C., aliquoted and stored frozen at −20° C. until use in this culture medium.
(§4) This culture medium (“complete medium”) was usually prepared fresh just before use and pre-warmed to 37° C.
(§5) Red blood cells AB− stock suspensions were prepared from whole blood bags coming from incomplete blood donation, provided by the Spanish Red Cross (<25 days after sampling). This “whole blood” was aliquoted and stored at 4° C.
(§6) To prepare red blood cells for the assay, the whole blood was centrifuged and washed 3 times with RPMI without serum. The upper phase, containing white blood cells was removed. The washed red blood cells were kept as a 50% suspension in complete medium. The prepared cells were stored at 4° C. and were employed in the assay at any time up to 4 days after preparation.
(§7) Test compounds were dissolved at 2 mg/ml in 100% DMSO on the day of the assay. If necessary, complete dissolution was achieved by gentle heating (the mixture was heated at a temperature <37° C.) and sonication (sonication bath).
(§8) For IC50 determinations, 10 serial 2-fold dilutions were prepared in complete medium in the presence of a constant amount of DMSO. Any obvious signs of insolubility of the stock solutions in 100% DMSO or precipitation when these solutions were diluted in assay media, were recorded.
(§9) Plasmodium falciparum strains were maintained in complete medium at 5% of hematocrit in continuous culture using a method adapted from Trager W. and Jensen J. B. (Human malaria parasites in continuous culture Science 193 (4254) (1976) 673-675) and Trager W. (Cultivation of malaria parasites Methods Cell Biol. 45 (1994) 7-26).
(§10) The parasitemia was calculated by counting the percentage of parasitized erythrocytes by optical microscopy. Thin films of blood were made every day from each culture flask, fixed with methanol and stained for 10 min. in Giemsa (Merck, cat ref.: 1.09204) at 10% in buffered water pH 7.2. The glass slides were observed and counted with an optical microscope (Nikon, Eclipse E200) equipped with a 100× immersion oil objective.
(§11) The culture was maintained at 5% of hematocrit, with a daily change of medium and was diluted when parasitemia had reached about 5%.
(§12) [^3H] Hypoxanthine incorporation assay was conducted using a method adapted from Desjardins R. E. et al. (Quantitative assessment of antimalarial activity in vitro by a semiautomated microdilution technique. Antimicrob. Agents Chemother., 16 (6) (1979) 710-718). The assays were performed in 96 wells flat bottom microplates.
(§13) 1. Serial dilutions of each test compound (25 μl of a 5× solution/well) were deposited in one row of assay microtiter plate. Compounds of this invention were tested in this assay. Chloroquine and Azithromycin were used as control compounds for each assay.
(§14) 2. […] 100 μl of the resulting suspension was distributed into each well of columns 1-11 of assay microtiter plate leading to a final volume of 125 μl per well, at 1.2% of hematocrit and 0.4% of parasitemia/well.
(§15) 3. In each plate, 2 columns were reserved for control wells: • Column 11 (comprising wells A11-H11): Positive control wells: Untreated PRBCs to compare with cultures treated with test compounds. • Column 12 (comprising wells A12-H12): • Background value wells: Uninfected RBCs—blank control to obtain the background reading from RBCs without parasites (at 1.2% of hematocrite value).
(§16) 4. The plates were incubated at 37° C. under low oxygen atmosphere. […]

[2] = test system: Plasmodium falciparum strain 3D7A; assay: In vitro screening protocol II, [3H] hypoxanthine incorporation IC50 assay, 3D7A; type: cell-based; details: P. falciparum 3D7A; for IC50: Plasmodium falciparum
Description: as §1, §2, §3, §4, §5, §6, §7, §8, §9, §10, §11, §12, §13, §14, §15, §16

Molecule	IC50 W2 [1]	IC50 3D7A [2]	IC50 [1]	IC50 [2]
CC(=O)O.CC(=O)O.CC[C@H]1OC(=O)[C@H](C)[C@@H](O[C@H]2C[C@@](C)(OC)[C@@H](O)[C@H](C)O2)[C@H](C)[C@@H](O[C@@H]2O[C@H](C)C[C@H](N(C)C)[C@H]2O)[C@](C)(O)C[C@@H](C)CN(CCCNC(=O)CCc2ccccc2)[C@H](C)[C@@H](O)[C@]1(C)O [Example 47, 9a-{3-[(3-Phenylpropanoyl)amino]propyl}-9a-aza-9-deoxo-9-dihydro-9a-homoerythromycin A Diacetate Salt]	D (1000 < X ≦ 2500)	D (1000 < X ≦ 2500)		
9a-(3-{[(4-Nitrophenyl)acetyl]amino}propyl)-9-deoxo-9-dihydro-9a-aza-9a-homoerythromycin A Formiate Salt [Example 64]	C (200 < X ≦ 1000)	D (1000 < X ≦ 2500)		
CCC1OC(=O)C(C)C(OC2CC(C)(OC)C(O)C(C)O2)C(C)C(OC2OC(C)CC(N(C)C)C2O)C(C)(O)CC(C)CN(CCCNC(=O)Cc2ccc(Cl)cc2)C(C)C(O)C1(C)O.O=CO (centres unmarked) [Example 63, 9a-(3-{[(4-Chlorophenyl)acetyl]amino}propyl)-9-deoxo-9-dihydro-9a-aza-9a-homoerythromycin A Formiate Salt]	C (200 < X ≦ 1000)	C (200 < X ≦ 1000)		
CC[C@H]1OC(=O)[C@H](C)[C@@H](O[C@H]2C[C@@](C)(OC)[C@@H](O)[C@H](C)O2)[C@H](C)[C@@H](O[C@@H]2O[C@H](C)C[C@H](N(C)C)[C@H]2O)[C@](C)(O)C[C@@H](C)CN(CCCNCc2ccc3ccccc3c2)[C@H](C)[C@@H](O)[C@]1(C)O [Example 54, 9a-{3-[(Naphtalen-2-yl-methyl)amino]propyl}-9-deoxo-9-dihydro-9a-aza-9a-homoerythromycin A]			< 0.1 µg/mL	0.1 to 0.2 µg/mL (≈ 0.107 to 0.215 µM)
CC[C@H]1OC(=O)[C@H](C)[C@@H](O[C@H]2C[C@@](C)(OC)[C@@H](O)[C@H](C)O2)[C@H](C)[C@@H](O[C@@H]2O[C@H](C)C[C@H](N(C)C)[C@H]2O)[C@](C)(O)C[C@@H](C)CN(CCCNC(=O)Cc2ccccc2[N+](=O)[O-])[C@H](C)[C@@H](O)[C@]1(C)O.O=CO [Example 67, 9a-(3-{[(2-Nitrophenyl)acetyl]amino}propyl)-9-deoxo-9-dihydro-9a-aza-9a-homoerythromycin A Formiate Salt]	D (1000 < X ≦ 2500)	H (5000 < X ≦ 10000)		
CC[C@H]1OC(=O)[C@H](C)[C@@H](O[C@H]2C[C@@](C)(OC)[C@@H](O)[C@H](C)O2)[C@H](C)[C@@H](O[C@@H]2O[C@H](C)C[C@H](N(C)C)[C@H]2O)[C@](C)(O)C[C@@H](C)CN(CCCNC(=O)CCc2ccc(F)cc2)[C@H](C)[C@@H](O)[C@]1(C)O.O=CO [Example 70, 9a-(3-{[3-(4-Fluorophenyl)propanoyl]amino}propyl)-9-deoxo-9-dihydro-9a-aza-9a-homoerythromycin A Formiate Salt]	C (200 < X ≦ 1000)	D (1000 < X ≦ 2500)		
CC(=O)O.CC(=O)O.CC(=O)O.CCC1OC(=O)C(C)C(O)C(C)C(OC2OC(C)CC(N(C)C)C2O)C(C)(O)CC(C)CN(CCCNc2ccnc3cc(Cl)ccc23)C(C)C(O)C1(C)O (centres unmarked) [Example 79]	A (X ≦ 100)	A (X ≦ 100)		
CCC1OC(=O)C(C)C(OC2CC(C)(OC)C(O)C(C)O2)C(C)C(OC2OC(C)CC(N(C)C)C2O)C(C)(O)CC(C)CN(CCCNC(=O)Cc2ccc(OC)cc2)C(C)C(O)C1(C)O.O=CO (centres unmarked) [Example 58, 9a-[3-({[4-(Methyloxy)phenyl]acetyl}amino)propyl]-9-deoxo-9-dihydro-9a-aza-9a-homoerythromycin A Formiate Salt]	C (200 < X ≦ 1000)	G (3500 < X ≦ 5000)		
CCC1OC(=O)C(C)C(OC2CC(C)(OC)C(O)C(C)O2)C(C)C(OC2OC(C)CC(N(C)C)C2O)C(C)(O)CC(C)CN(CCCNC(=O)CCC(=O)c2ccccc2)C(C)C(O)C1(C)O.O=CO (centres unmarked) [Example 65, 9a-{3-[(4-Oxo-4-phenylbutanoyl)amino]propyl}-9-deoxo-9-dihydro-9a-aza-9a-homoerythromycin A Formiate Salt]	D (1000 < X ≦ 2500)	G (3500 < X ≦ 5000)		
CC[C@H]1OC(=O)[C@H](C)[C@@H](O[C@H]2C[C@@](C)(OC)[C@@H](O)[C@H](C)O2)[C@H](C)[C@@H](O[C@@H]2O[C@H](C)C[C@H](N(C)C)[C@H]2O)[C@](C)(O)C[C@@H](C)CN(CCCNCC2CCNc3ccccc32)[C@H](C)[C@@H](O)[C@]1(C)O (some centres unmarked) [Example 55, 9a-{3-[(1,2,3,4-tetrahydro-quinolin-4-yl-methyl)amino]propyl}-9-deoxo-9-dihydro-9a-aza-9a-homoerythromycin A]			< 0.1 µg/mL	0.2 to 1 µg/mL (≈ 0.213 to 1.07 µM)
CC(=O)O.CC(=O)O.CCC1OC(=O)C(C)C(OC2CC(C)(OC)C(O)C(C)O2)C(C)C(OC2OC(C)CC(N(C)C)C2O)C(C)(O)CC(C)CN(CCCNCc2ccnc3ccccc23)C(C)C(O)C1(C)O (centres unmarked) [Example 78, 9a-{3-[(Quinolin-4-yl-methyl)amino]propyl}-9-deoxo-9-dihydro-9a-aza-9a-homoerythromycin A Diacetate Salt]	A (X ≦ 100)	C (200 < X ≦ 1000)		
CCC1OC(=O)C(C)C(OC2CC(C)(OC)C(O)C(C)O2)C(C)C(OC2OC(C)CC(N(C)C)C2O)C(C)(O)CC(C)CN(CCCNC(=O)Cc2ccccc2F)C(C)C(O)C1(C)O.O=CO (centres unmarked) [Example 69, 9a-(3-{[(2-Fluorophenyl)acetyl]amino}propyl)-9-deoxo-9-dihydro-9a-aza-9a-homoerythromycin A Formiate Salt]	C (200 < X ≦ 1000)	G (3500 < X ≦ 5000)		
CC[C@H]1OC(=O)[C@H](C)[C@@H](O[C@H]2C[C@@](C)(OC)[C@@H](O)[C@H](C)O2)[C@H](C)[C@@H](O[C@@H]2O[C@H](C)C[C@H](N(C)C)[C@H]2O)[C@](C)(O)C[C@@H](C)CN(CCCNC(=O)C(Cc2ccc(F)cc2)NC(C)=O)[C@H](C)[C@@H](O)[C@]1(C)O.O=CO (some centres unmarked) [Example 60, 9a-{3-[(N-Acetyl-4-fluorophenylalanyl)amino]propyl}-9-deoxo-9-dihydro-9a-aza-9a-homoerythromycin A Formiate Salt]	D (1000 < X ≦ 2500)	H (5000 < X ≦ 10000)		
CCC1OC(=O)C(C)C(OC2CC(C)(OC)C(O)C(C)O2)C(C)C(OC2OC(C)CC(N(C)C)C2O)C(C)(O)CC(C)CN(CCCNC(=O)Cc2cccc(Cl)c2)C(C)C(O)C1(C)O.O=CO (centres unmarked) [Example 62, 9a-(3-{[(3-Chlorophenyl)acetyl]amino}propyl)-9-deoxo-9-dihydro-9a-aza-9a-homoerythromycin A Formiate Salt]	C (200 < X ≦ 1000)	C (200 < X ≦ 1000)		
CC[C@H]1OC(=O)[C@H](C)[C@@H](O[C@H]2C[C@@](C)(OC)[C@@H](O)[C@H](C)O2)[C@H](C)[C@@H](O[C@@H]2O[C@H](C)C[C@H](N(C)C)[C@H]2O)[C@](C)(O)C[C@@H](C)CN(CCCNC(=O)/C=C/c2cnc3ccccc3c2)[C@H](C)[C@@H](O)[C@]1(C)O [Example 76, 9a-(3-{[(2E)-3-(Quinolin-3-yl)-2-propenoyl]amino}propyl)-9-deoxo-9-dihydro-9a-aza-9a-homoerythromycin A]			0.2 to 1 µg/mL (≈ 0.205 to 1.03 µM)	0.2 to 1 µg/mL (≈ 0.205 to 1.03 µM)
CCC1OC(=O)C(C)C(OC2CC(C)(OC)C(O)C(C)O2)C(C)C(OC2OC(C)CC(N(C)C)C2O)C(C)(O)CC(C)CN(CCCNC(=O)c2cc(Cl)ccc2[N+](=O)[O-])C(C)C(O)C1(C)O.O=CO (centres unmarked) [Example 66, 9a-(3-{[(5-Chloro-2-nitrophenyl)carbonyl]amino}propyl)-9-deoxo-9-dihydro-9a-aza-9a-homoerythromycin A Formiate Salt]	C (200 < X ≦ 1000)	D (1000 < X ≦ 2500)		

Reference: patent US20090105301A1, “9A-SUBSTITUTED AZALIDES FOR THE TREATMENT OF MALARIA” (priority 2006, published 2009)
